Key:
[1] = test system: edema in the hind paws (carrageenan); assay: Antiinflammatory effect: carrageenan-induced edema of the hind paws; assay type: in vivo, Male Wister rats; details: oral, rat; for Inhibition (%) (after 3 hours): 1% carrageenan edema
Description: Male Wister rats each weighing about 100 g, one group consisting of 5 to 7 rats, were orally given test compounds, and edema was then induced in the hind paws by a subcutaneous injection of 0.1 ml of a 1% carrageenan saline solution one hour after the administration of the test compounds. With a predetermined lapse of time, the volumes of the hind paws were measured by a volume differential meter. Indomethacin was used as an active placebo.

[2] = test system: writhing syndromes (acetic acid); assay: Analgesic effect: acetic acid-induced writhing syndromes; assay type: in vivo, dd Male mice; details: oral, mouse, 0.6% acetic acid writhing within 20 minutes
Description: dd Male mice each weighing 18 to 22 g, one group consisting of 10 mice, were given by an intraperitoneal injection of 0.6% acetic acid in a dosage of 0.1 ml/10 g/body weight. The number of writhing syndromes occurring within 20 minutes after the injection was observed. These animals were given orally test compounds suspended in a 0.2% carboxymethylcellulose solution 30 minutes before the injection of acetic acid. The inhibitory percentage of each of the test compounds was calculated in comparison with a control in which a 0.2% carboxymethylcellulose solution only was given. Aspirin was used as an active placebo.

[3] = LD50 by the Lichfield-Wilcoxon method; details: rat, in vivo, rats
From the text: This fact confirms the excellent effects of the present compounds.

Row | SMILES | Antiinflammatory activity (ratio to Indomethacin) [1] | Analgesic activity (ratio to Aspirin) [2] | Inhibition (%) (after 3 hours) ([1]; 2 mg/kg) | Inhibition (%) (after 3 hours) ([1]; 4 mg/kg) | LD50 [3] [mg/kg]
1 | O=C(O)Cc1ccc2c(c1)Sc1ccccc1C(=O)C2 [Comparative compound B] | 0.01 | 1 |  |  | 
2 | CC(C(N)=O)c1ccc2c(c1)CC(=O)c1ccccc1S2 (centres unmarked) [Compound 1, 2-(10,11-Dihydro-10-oxodibenzo[b,f]thiepin-2-yl)-propionamide] |  |  | 52.5 |  | 
3 | O=C(O)Cc1ccc2c(c1)CC(=O)c1ccccc1S2 [Comparative compound A] | 0.01 | 1 |  |  | 
4 | COc1ccc2c(c1)c(CC(=O)O)c(C)n2C(=O)c1ccc(Cl)cc1 [Indomethacin] |  |  | 35.9 | 51.9 | 
5 | CC(C(=O)O)c1ccc2c(c1)CC(=O)c1ccccc1S2 (centres unmarked) [Compound 2, 2-(10,11-Dihydro-10-oxodibenzo[b,f]thiepin-2-yl)-propionic acid] | 2 | 20 | 55.8 |  | 232
